According to ChEMBL document CHEMBL1122199, “Structure-activity relationships in potentially hallucinogenic N,N-dialkyltryptamines substituted in the benzene moiety” (J Med Chem, 1982):
Values joined by “and” are separate entries in the source; they are usually repeats but may differ in a detail not shown here. Equal entries are not always repeated.

Key:
[1] = Ability to displace [3H]LSD binding to Lysergic acid diethylamide receptor site using 1 uM 5-HT as masking ligand; design: species or system Cavia porcellus
Rattus norvegicus [2] = assay: The behavior disruption data as percent change in response from drug versus saline at dose 2.5mg/Kg, expressed as L (Late).; assay type: functional
Rattus norvegicus [3] = assay: The behavior disruption data as percent change in response from drug versus saline at dose 2.5mg/Kg, expressed as E (efficient); assay type: functional
Rattus norvegicus [4] = assay: The behavior disruption data as percent change in response from drug versus saline at dose 1.25mg/Kg, expressed as E (efficient); assay type: functional
Rattus norvegicus [5] = assay: The behavior disruption data as percent change in response from drug versus saline at dose 1.25mg/Kg, expressed as L (Late).; assay type: functional
Rattus norvegicus [6] = assay: The behavior disruption data as percent change in response from drug versus saline at dose 1.25 mg/kg, expressed as B/P (burst/premature).; assay type: functional
[7] = molecular target: Serotonin (5-HT) receptor; assay: Ability to displace [3H]5-HT binding to 5-hydroxytryptamine receptor site using 1 uM LSD as masking ligand; assay type: protein assay, Cavia porcellus
[8] = Hill coefficient of the compound
Rattus norvegicus [9] = assay: The behavior disruption data as percent change in response from drug versus saline at dose 2.5 mg/kg, expressed as B/P (burst/premature).; assay type: functional
Rattus norvegicus [10] = assay: The behavior disruption data as percent change in response from drug versus saline at dose 1mg/Kg, expressed as E (efficient); assay type: functional
Rattus norvegicus [11] = assay: The behavior disruption data as percent change in response from drug versus saline at dose 1mg/Kg, expressed as L (Late).; assay type: functional
Rattus norvegicus [12] = assay: The behavior disruption data as percent change in response from drug versus saline at dose 2mg/kg, expressed as B/P (burst/premature).; assay type: functional
Rattus norvegicus [13] = assay: The behavior disruption data as percent change in response from drug versus saline at dose 1 mg/kg, expressed as B/P (burst/premature).; assay type: functional
Rattus norvegicus [14] = assay: The behavior disruption data as percent change in response from drug versus saline at dose 8 mg/kg, expressed as B/P (burst/premature).; assay type: functional
Rattus norvegicus [15] = assay: The behavior disruption data was measured as percent change in response from drug versus saline at dose 2 mg/kg, activity expressed as L (Late).; assay type: functional
Rattus norvegicus [16] = assay: The behavior disruption data as percent change in response from drug versus saline at dose 2mg/Kg, expressed as E (efficient); assay type: functional
Rattus norvegicus [17] = assay: The behavior disruption data as percent change in response from drug versus saline at dose 4 mg/kg, expressed as B/P (burst/premature).; assay type: functional
Rattus norvegicus [18] = assay: The behavior disruption data as percent change in response from drug versus saline at dose 4mg/Kg, expressed as L (Late).; assay type: functional
Rattus norvegicus [19] = assay: The behavior disruption data as percent change in response from drug versus saline at dose 8mg/Kg, expressed as E (efficient); assay type: functional
Rattus norvegicus [20] = assay: The behavior disruption data as percent change in response from drug versus saline at dose 4mg/Kg, expressed as E (efficient); assay type: functional
Rattus norvegicus [21] = assay: The behavior disruption data as percent change in response from drug versus saline at dose 8mg/Kg, expressed as L (Late).; assay type: functional
Rattus norvegicus [22] = assay: The behavior disruption data as percent change in response from drug versus saline at dose 0.5 mg/Kg, expressed as E (efficient); assay type: functional
Rattus norvegicus [23] = assay: The behavior disruption data as percent change in response from drug versus saline at dose 2mg/Kg, expressed as L (Late).; assay type: functional
Rattus norvegicus [24] = assay: The behavior disruption data as percent change in response from drug versus saline at dose 0.5 mg/kg, expressed as B/P (burst/premature).; assay type: functional
Rattus norvegicus [25] = assay: The behavior disruption data as percent change in response from drug versus saline at dose 0.5 mg/Kg, expressed as L (Late).; assay type: functional
Rattus norvegicus [26] = assay: The behavior disruption data as percent change in response from drug versus saline at dose 5 mg/kg, expressed as B/P (burst/premature).; assay type: functional
Rattus norvegicus [27] = assay: The behavior disruption data as percent change in response from drug versus saline at dose 5mg/Kg, expressed as L (Late).; assay type: functional
Rattus norvegicus [28] = assay: The behavior disruption data as percent change in response from drug versus saline at dose 5mg/Kg, expressed as E (efficient); assay type: functional
[29] = molecular target: Serotonin (5-HT) receptor; assay: Ability to displace [3H]5-HT binding from 5-hydroxytryptamine receptor site using 1 uM LSD as masking ligand; assay type: protein assay, Cavia porcellus
Rattus norvegicus [30] = assay: The behavior disruption data as percent change in response from drug versus saline at dose 15 mg/kg, expressed as B/P (burst/premature).; assay type: functional
Rattus norvegicus [31] = assay: The behavior disruption data as percent change in response from drug versus saline at dose 10mg/Kg, expressed as L (Late).; assay type: functional
Rattus norvegicus [32] = assay: The behavior disruption data as percent change in response from drug versus saline at dose 10 mg/kg, expressed as B/P (burst/premature).; assay type: functional
Rattus norvegicus [33] = assay: The behavior disruption data as percent change in response from drug versus saline at dose 10mg/Kg, expressed as E (efficient); assay type: functional
Rattus norvegicus [34] = assay: The behavior disruption data as percent change in response from drug versus saline at dose 15mg/Kg, expressed as E (efficient); assay type: functional
Rattus norvegicus [35] = assay: The behavior disruption data as percent change in response from drug versus saline at dose 15mg/Kg, expressed as L (Late).; assay type: functional
Rattus norvegicus [36] = assay: The behavior disruption data as percent change in response from drug versus saline at dose 0.25mg/Kg, expressed as L (Late).; assay type: functional
Rattus norvegicus [37] = assay: The behavior disruption data as percent change in response from drug versus saline at dose 0.25mg/Kg, expressed as E (efficient); assay type: functional
Rattus norvegicus [38] = assay: The behavior disruption data as percent change in response from drug versus saline at dose 0.25 mg/kg, expressed as B/P (burst/premature).; assay type: functional

| Structure (SMILES) | IC50 [1] [M l-1] | IC50 [7] [M l-1] | Hill coefficient [8] | Change in response (Rattus norvegicus [10]) [%] | Change in response (Rattus norvegicus [11]) [%] | Change in response (Rattus norvegicus [12]) [%] | Change in response (Rattus norvegicus [13]) [%] | Change in response (Rattus norvegicus [16]) [%] | Change in response (Rattus norvegicus [22]) [%] | Change in response (Rattus norvegicus [23]) [%] | Change in response (Rattus norvegicus [24]) [%] | Change in response (Rattus norvegicus [25]) [%] | Change in response (Rattus norvegicus [26]) [%] | Change in response (Rattus norvegicus [27]) [%] | Change in response (Rattus norvegicus [28]) [%] | other results |
| --- | --- | --- | --- | --- | --- | --- | --- | --- | --- | --- | --- | --- | --- | --- | --- | --- |
| CC(C)N(CCc1c[nH]c2ccc3c(c12)OCO3)C(C)C | 2.88e-6 | 2.24e-6 | 0.343 | – | – | – | – | – | – | – | – | – | – | – | – | Change in response (Rattus norvegicus [2]): 11%; Change in response (Rattus norvegicus [3]): 49%; Change in response (Rattus norvegicus [4]): 28%; Change in response (Rattus norvegicus [5]): 74%; Change in response (Rattus norvegicus [6]): 24%; Change in response (Rattus norvegicus [9]): 38% |
| CSc1cccc2[nH]cc(CCN(C)C)c12 | 0.0000125 | 0.000151 | 0.75 and 1.01 | 1 | 1 | 8 | 0 | 11 | – | – | – | – | – | – | – | Change in response (Rattus norvegicus [14]): 36%; Change in response (Rattus norvegicus [15]): 3%; Change in response (Rattus norvegicus [17]): 20%; Change in response (Rattus norvegicus [18]): 6%; Change in response (Rattus norvegicus [19]): 52%; Change in response (Rattus norvegicus [20]): 27%; Change in response (Rattus norvegicus [21]): 15% |
| COc1cccc2[nH]cc(CCN(C)C)c12 | – | – | – | 25 | 6 | 10 | 9 | 27 | 2 | 7 | 0 | 2 | – | – | – | – |
| COc1ccc2c(CCN(C)C)c[nH]c2c1 | – | – | – | – | – | – | – | – | – | – | – | – | 29 | 21 | 50 | Change in response (Rattus norvegicus [2]): 8%; Change in response (Rattus norvegicus [3]): 34%; Change in response (Rattus norvegicus [4]): 21%; Change in response (Rattus norvegicus [5]): 5%; Change in response (Rattus norvegicus [6]): 25%; Change in response (Rattus norvegicus [9]): 26% |
| CSc1ccc2c(CCN(C)C)c[nH]c2c1 | 7.59e-6 | 0.0000408 | 0.97 and 0.57 | 13 | 4 | 20 | 8 | 30 | 8 | 19 | 4 | 4 | – | – | – | Change in response (Rattus norvegicus [17]): 34%; Change in response (Rattus norvegicus [18]): 14%; Change in response (Rattus norvegicus [20]): 48% |
| CSc1ccc2[nH]cc(CCN(C)C)c2c1 | 1.44e-7 | – | 0.91 and 0.995 | 65 | 49 | – | 16 | – | 26 | – | 13 | 7 | – | – | – | IC50 [29]: 1e-6 M l-1 |
| CN(C)CCc1c[nH]c2cc3c(cc12)OCO3 | 1.78e-6 | 0.0000407 | 0.95 and 1.01 | – | – | – | – | – | – | – | – | – | 9 | 2 | 11 | Change in response (Rattus norvegicus [30]): 22%; Change in response (Rattus norvegicus [31]): 9%; Change in response (Rattus norvegicus [32]): 19%; Change in response (Rattus norvegicus [33]): 26%; Change in response (Rattus norvegicus [34]): 41%; Change in response (Rattus norvegicus [35]): 19% |
| CN(C)CCc1c[nH]c2ccc3c(c12)OCO3 | – | – | – | 10 | 5 | 11 | 5 | 31 | 5 | 20 | 0 | 5 | – | – | – | Change in response (Rattus norvegicus [36]): 5%; Change in response (Rattus norvegicus [37]): 3%; Change in response (Rattus norvegicus [38]): 3% |
| COc1ccc2[nH]cc(CCN(C)C)c2c1 [MEBUFOTENIN] | – | – | – | 11 | 5 | 19 | 6 | 26 | – | 9 | – | – | – | – | – | – |
| CC(C)N(CCc1c[nH]c2cc3c(cc12)OCO3)C(C)C | 0.00001 | – | 0.642 | – | – | – | – | – | – | – | – | – | 2 | 2 | 4 | Change in response (Rattus norvegicus [31]): 16%; Change in response (Rattus norvegicus [32]): 29%; Change in response (Rattus norvegicus [2]): 2%; Change in response (Rattus norvegicus [33]): 45%; Change in response (Rattus norvegicus [3]): 2%; Change in response (Rattus norvegicus [4]): 0%; Change in response (Rattus norvegicus [5]): 1%; Change in response (Rattus norvegicus [6]): 1%; IC50 [29]: 0.000933 M l-1; Change in response (Rattus norvegicus [9]): 0% |
| CSc1cccc2[nH]cc(CCN(C(C)C)C(C)C)c12 | – | – | 0.7 | – | – | – | – | – | – | – | – | – | 1 | 4 | 5 | Change in response (Rattus norvegicus [31]): 9%; Change in response (Rattus norvegicus [32]): 23%; Change in response (Rattus norvegicus [33]): 32% |
